≈ marks a conversion by molar mass, not a printed value. Read-outs that look alike come from different tables or passages of the source.
Tests used:
[1] = tested on: Chondrocytes; experiment: in vitro cytotoxic activity of antibiotics against horse chondrocytes; assay type: cell-based; conditions: for IC50: Equus caballus, Chondrocyte, read-out: Concentration (equine IC50)
Source text: (§1) Table 1 and 2 represent in vitro evaluation of the cytotoxic activity of different conventional antibiotics, as assessed for toxicity against dog cells (Table 1) or horse cells (Table 2). Similar toxicity profiles would also be anticipated for human cells.
(§2) The antibiotics with the highest IC50 values are considered non-cytotoxic, while those with lower values are considered more cytotoxic, and unsuitable for co-administration with activated MSC or activated iMSCs. For example, amikacin and enrofloxacin are more cytotoxic to joint cells (e.g. synovial cells and chondrocytes) than vancomycin, and should not be used for preparing the antibiotic plus activated MSCs formulations of uses herein, whereas vancomycin is one of the preferred antibiotics for these formulations for treating gram+ infections.
(§3) Table 2 represents and overview of equine IC50s of certain antibiotics of use herein

[2] = tested on: Synovial Cells; experiment: in vitro cytotoxic activity of antibiotics against horse synovial cells; assay type: cell-based; conditions: for IC50: Equus caballus, Synovial cell, read-out: Concentration (equine IC50)
Source text: as §1, §2, §3

[3] = in vitro cytotoxic activity of antibiotics against dog synoviocytes; assay type: cell-based
Source text: as §1, with “cells. The antibiotics with the highest IC50 values are considered non-cytotoxic, while those with lower values are considered more cytotoxic, and unsuitable for co-administration with activated MSC or activated iMSCs.” for “cells.”

[4] = in vitro cytotoxic activity of antibiotics against dog chondrocytes; assay type: cell-based; design: IC50 (cytotoxicity): unit not given beside the values
Source text: as §1, with “cells. The antibiotics with the highest IC50 values are considered non-cytotoxic, while those with lower values are considered more cytotoxic, and unsuitable for co-administration with activated MSC or activated iMSCs.” for “cells.”

[5] = tested on: MRSA strain of Staphylococcus aureus; experiment: equine model of septic arthritis (joint infected with MRSA), intra-articular treatment
Source text: In one example, a model of septic arthritis was studied. […] Certain objectives of this study were to determine if intra-articular (IA) administration of TLR activated MSCs (e.g. bone marrow derived MSCs) improve clinical outcomes and reduce bacterial burden and biomarkers of joint inflammation in an equine model of septic arthritis compared to conventional antimicrobial therapy alone. It was hypothesized that activated MSC therapy in combination with conventional antibiotic therapy could improve resolution of septic arthritis as assessed by lameness evaluation, joint circumference, imaging, and more rapid resolution of bacterial infection and inflammatory biomarkers.
In this example, four horses, each experimentally infected in one joint with MRSA strain of Staphylococcus aureus in one joint were set up for the study. Treatment started 24 h after introduction of the infective agent, two antibiotic only (control); two in TLR3 MSC plus antibiotic. All horses were treated with vancomycin (e.g. 100 mg) injected directly into the joint. The control 2 horses were just treated with vancomycin. The experimental 2 horses were (TLR MSC horses) were also treated with activated equine allogeneic MSC (e.g. 2×10^6) injected into joint immediately after vancomycin. These treatments were repeated three times at 3-day intervals for MSC horse, only twice for control horse (euthanized on day 7). The treatment responses were evaluated by cultured synovial fluid from joints (bacti counts, cell counts) and joint circumference and swelling. […] The experimental horses receiving the combined treatment were euthanized on day 14 to assess joint parameters and bacterial counts.
Synovial fluid was collected from each horse in the study, at the indicated time points, starting the day before infection (DO) and continuing until day 7. Control horses treated with vancomycin injections into the joint only, while TLR-MSC horse was treated with both activated MSC and vancomycin, both injected into the joint. The vancomycin dose was 100 mg per injection, while the dose of TLR3 activated MSC was 2×10^6 cells per injection, consisting of activated, allogeneic MSC obtained from bone marrow of unrelated healthy horses.
Synovial fluid samples from the two horses described in FIGS. 1A and 1B were also evaluated for their concentration of live MRSA bacteria. Collected samples were processed to disaggregate the bacteria in the synovial fluid, then the sample was serially diluted in PBS and then plated on quadrant plates with LB agar.
Skeletally mature horses, (male Quarter Horses, 3 years of age), deemed healthy by physical examination, bloodwork (complete blood count, serum biochemical panel), and without evidence of tarsal osteoarthritis determined radiographically were treatment recipients.

[6] = tested on: CHONDROCYTES; experiment: in vitro cytotoxic activity of antibiotics against dog chondrocytes; assay type: cell-based; design: IC50 (cytotoxicity): unit not given beside the values
Source text: as §1, with “cells. The antibiotics with the highest IC50 values are considered non-cytotoxic, while those with lower values are considered more cytotoxic, and unsuitable for co-administration with activated MSC or activated iMSCs.” for “cells.”

CC1(C)S[C@@H]2[C@H](NC(=O)[C@H](N)c3ccc(O)cc3)C(=O)N2[C@H]1C(=O)O [Amoxicillin]
IC50 ([1]; equine chondrocytes): 14000 µg/mL (≈ 38.3 mM) | IC50 ([2]; equine synovial cells): > 25000 µg/mL

NCC[C@H](O)C(=O)N[C@@H]1C[C@H](N)[C@@H](O[C@H]2O[C@H](CN)[C@@H](O)[C@H](O)[C@H]2O)[C@H](O)[C@H]1O[C@H]1O[C@H](CO)[C@@H](O)[C@H](N)[C@H]1O [Amikacin]
IC50 ([3]; dog): 2260 µg/mL (≈ 3.86 mM) | IC50 ([4]; dog): 2740 µg/mL (≈ 4.68 mM) | IC50 ([1]; equine chondrocytes): < 390 µg/mL | IC50 ([2]; equine synovial cells): 799 µg/mL (≈ 1.36 mM)

C[C@@H](O)[C@H]1C(=O)N2C(C(=O)O)=C(SCCN=CN)C[C@H]12 [Imipenem]
IC50 ([1]; equine chondrocytes): > 25000 µg/mL | IC50 ([2]; equine synovial cells): > 25000 µg/mL

C[C@H]1c2cccc(O)c2C(=O)C2=C(O)[C@]3(O)C(=O)C(C(N)=O)=C(O)[C@@H](N(C)C)[C@@H]3[C@@H](O)[C@@H]21 [Doxycycline]
IC50 ([1]; equine chondrocytes): 1030 µg/mL (≈ 2.32 mM) | IC50 ([2]; equine synovial cells): 711 µg/mL (≈ 1.6 mM)

Neomycin
Concentration (equine IC50) ([1]; equine chondrocytes): 821.9 µg/mL | Concentration (equine IC50) ([2]; equine synovial cells): 6274 µg/mL

NC[C@H]1O[C@H](O[C@H]2[C@H](O)[C@@H](O[C@H]3O[C@H](CO)[C@@H](O)[C@H](N)[C@H]3O)[C@H](N)C[C@@H]2N)[C@H](N)C[C@@H]1O [Tobramycin]
IC50 ([1]; equine chondrocytes): > 25000 µg/mL | IC50 ([2]; equine synovial cells): 9490 µg/mL (≈ 20.3 mM)

CC(C)(O/N=C(\C(=O)N[C@@H]1C(=O)N2C(C(=O)[O-])=C(C[n+]3ccccc3)CS[C@H]12)c1csc(N)n1)C(=O)O [Ceftazidime]
IC50 ([3]; dog): 1620 µg/mL (≈ 2.97 mM) | IC50 ([4]; dog): 3160 µg/mL (≈ 5.78 mM) | IC50 ([1]; equine chondrocytes): 3590 µg/mL (≈ 6.57 mM) | IC50 ([2]; equine synovial cells): 3360 µg/mL (≈ 6.15 mM)

CN[C@H](CC(C)C)C(=O)N[C@H]1C(=O)N[C@@H](CC(N)=O)C(=O)N[C@H]2C(=O)N[C@H]3C(=O)N[C@H](C(=O)N[C@H](C(=O)O)c4cc(O)cc(O)c4-c4cc3ccc4O)[C@H](O)c3ccc(c(Cl)c3)Oc3cc2cc(c3O[C@@H]2O[C@H](CO)[C@@H](O)[C@H](O)[C@H]2O[C@H]2C[C@](C)(N)[C@H](O)[C@H](C)O2)Oc2ccc(cc2Cl)[C@H]1O [Vancomycin]
IC50 ([3]; dog synoviocytes, read-out: IC50 (cytotoxicity)): 13800 µg/mL (≈ 9.5 mM) | IC50 ([4]; dog chondrocytes, read-out: IC50 (cytotoxicity)): 8640 µg/mL (≈ 5.97 mM) | IC50 [1]: 7310 µg/mL (≈ 5.04 mM) | IC50 [2]: 7810 µg/mL (≈ 5.39 mM) | overall outcome of joint infection ([5]; control euthanized day 7, combined treatment day 14): uncontrolled joint infection | circumference of the infected tarsocrural joint (effusion) ([5]; infected joint vs uninfected joint): remained very swollen | body temperature (fever) course ([5]; over time after MRSA joint infection): body temperature spikes were noted at two time points | body temperature in peaks ([5]; spikes): around 102 ° F.

Gentamicin
Concentration (equine IC50) ([1]; equine chondrocytes): 708.3 µg/mL | Concentration (equine IC50) ([2]; equine synovial cells): 512.5 µg/mL

Ampicillin sulbactam
Concentration (equine IC50) ([1]; equine chondrocytes): >25000 µg/mL | Concentration (equine IC50) ([2]; equine synovial cells): >25000 µg/mL

CO/N=C(\C(=O)N[C@@H]1C(=O)N2C(C(=O)O)=C(CSC(=O)c3ccco3)CS[C@H]12)c1csc(N)n1 [Ceftiofur Sodium]
IC50 ([1]; equine chondrocytes): 4270 µg/mL | IC50 ([2]; equine synovial cells): > 25000 µg/mL

CCN1CCN(c2cc3c(cc2F)c(=O)c(C(=O)O)cn3C2CC2)CC1 [Enrofloxacin]
IC50 ([3]; dog): 1250 µg/mL (≈ 3.47 mM) | IC50 (cytotoxicity) [6]: .078< × <1.56 | IC50 ([1]; equine chondrocytes): 4590 µg/mL (≈ 12.8 mM)

CS(=O)(=O)c1ccc([C@@H](O)[C@@H](CF)NC(=O)C(Cl)Cl)cc1 [Florfenicol]
IC50 ([1]; equine chondrocytes): 2190 µg/mL (≈ 6.11 mM) | IC50 ([2]; equine synovial cells): 2960 µg/mL (≈ 8.25 mM)

Cc1nnc(SCC2=C(C(=O)O)N3C(=O)[C@@H](NC(=O)Cn4cnnn4)[C@H]3SC2)s1 [Cefazolin]
IC50 ([3]; dog): 1480 µg/mL (≈ 3.26 mM) | IC50 ([4]; dog): 1670 µg/mL (≈ 3.67 mM) | IC50 ([1]; equine chondrocytes): 3950 µg/mL (≈ 8.69 mM) | IC50 ([2]; equine synovial cells): 1160 µg/mL (≈ 2.54 mM)

CC1(C)S[C@@H]2[C@H](NC(=O)Cc3ccccc3)C(=O)N2[C@H]1C(=O)[O-].[K+] [Potassium penicillin]
Concentration (equine IC50) ([1]; equine chondrocytes): 11610 µg/mL

Reference: patent publication US20240009246A1, “CELLULAR-ANTIMICROBIAL COMBINATION COMPOSITION AND METHODS FOR TREATMENT OF BACTERIAL INFECTIONS OF JOINTS AND SOFT TISSUES” (priority 2021, published 2024)
